Laboratory results published in patent publication US4968826A, “Platinum complexes and antitumor agents containing them as an active ingredient” (Shionogi & Co., Ltd., priority 1989, dated 1990).

What was measured:
[1] = tested on: L1210/CDDP; test: Antitumor effect (ILS) in mice inoculated i.p. with cisplatin-resistant murine leukemia L1210/CDDP; format: in vivo, murine leukemia cells in BDF1 mice; conditions: for ILS30 (dose of achieving 30% ILS) / ILSmax (dose of achieving the maximum ILS): i.p.; for Number of mice surviving 30 days or longer: A: of 6 mice; for chemotherapy index (CI): from ILS30 and ILSmax, the greater, the more effective
From the text: (§1) Antitumor activities against murine leukemia cells (L1210) and cisplatin-resistant murine leukemia cells (L1210/CDDP):
(§2) Murine leukemia L1210 (or L1210/CDDP) ascitic cells (1×10^5 cells) (5×10^5 cells for L1210/CDDP) were intraperitoneally inoculated to BDF1 mice (each group consisting 6~10 mice), and on the next day a predetermined amount of the test compound was intraperitoneally administered. 0.9% physiological saline was used as a solvent for injection.
(§3) From the average survival days (a) in each test group and those (b) of the non-treated control group, the increase of lifespan (ILS) was calculated according to the following formula. [formula]
(§4) As compared with the non-treated control group, the dose of achieving 30% ILS (ILS30) and the dose of achieving the maximum ILS (ILSmax) were obtained, from which the chemotherapy index (CI) was calculated. [formula]

[2] = tested on: Colon tumor 38; test: Antitumor activity against Colon tumor 38 transplanted in mice; format: in vivo, BDF1 mice; conditions: for ED 50 (dose of 50% growth inhibition in the mean tumor size): i.v. on next day and 8th day after; for chemotherapy index (CI): from ED50 and LD50, the greater, the more effective
From the text: Antitumor activity against Colon tumor 38:
A tumor segment of Colon tumor 38 was transplanted beneath the dorsal skin of BDF1 mice (6 to 10 mice in each group), and the test compounds were intravenously administered on the next day and on the 8th day after the next day, respectively. As solvent for injection, 0.9% physiological saline was used.
Test Compounds A, C, D and E were same as those used in Experiment 1.

[3] = tested on: murine nucleated bone marrow cells; test: Hemotoxicity: nucleated bone marrow cell count (NBMC) in femora; format: in vivo, male CDF1 mice; conditions: 4 days after
From the text: (§5) Influence against murine nucleated bone marrow cell count, megakaryocyte count and platelet count in peripheral blood:
(§6) After a single intravenous administration of test compounds to male CDF1 mice (7 weeks old), hemotoxicity was investigated by counting the nucleated bone marrow cell in femora (NBMC), megakaryocyte (MEG) and platelet (PLT) in peripheral blood. Measuring timing was taken when the three indices reached the minimal value, namely 4 days after administration for NBMC, and 7 days after for MEG and PLT.
(§7) Changes in the counts of nucleated bone marrow cells (NBMC), megakaryocytes (MEG) and platelets (PLT) in peripheral blood induced by administration of the test compounds are shown as hemotoxicity, expressed as the ratio of the value of each index in the test group to that of the non-treated conrol group as a percentage.

[4] = tested on: megakaryocytes; test: Hemotoxicity: megakaryocyte count (MEG); format: in vivo, male CDF1 mice; conditions: 7 days after
From the text: as §5, §6, §7

[5] = tested on: platelets in peripheral blood; test: Hemotoxicity: platelet count (PLT) in peripheral blood; format: in vivo, male CDF1 mice; conditions: 7 days after
From the text: as §5, §6, §7

[6] = tested on: L1210; test: Antitumor effect (ILS) in mice inoculated i.p. with murine leukemia L1210; format: in vivo, murine leukemia cells in BDF1 mice; conditions: for Number of mice survived 30 days or longer: of 7 mice; for chemotherapy index (CI): from ILS30 and ILSmax, the greater, the more effective; for ILS30 (dose of achieving 30% ILS) / ILS max (dose of achieving the maximum ILS): i.p.
From the text: as §1, §2, §3, §4

[7] = tested on: kidneys; test: Evaluation of nephrotoxicity in mice; format: in vivo, male CDF1 mice; conditions: for Creatinine / Urea nitrogen: mouse, in vivo, iv
Procedure: Evaluation of nephrotoxicity in mice:
After a single intravenous administration of Test Compound A to male CDF1 mice (6 weeks old) at a rate of 160 or 320 mg/kg*, the levels of creatinine and urea nitrogen in plasma were measured. The mice were presented for pathological examination of kidneys four days after administration. (*: 320 mg/kg would be a lethal dose if the observation period was further extended.)

[8] = 30.0 mg/kg (1/6 LD90) single i.v.

| Compound | ILS30 (dose of achieving 30% ILS) [1] | ED 50 (dose of 50% growth inhibition in the mean tumor size) [2] | Solubility in water | increase of lifespan (ILS) ([1]; 5 mg/kg i.p.) | increase of lifespan (ILS) ([1]; 10 mg/kg i.p.) | increase of lifespan (ILS) ([1]; 20 mg/kg i.p.) | increase of lifespan (ILS) ([1]; 40 mg/kg i.p.) | Number of mice surviving 30 days or longer ([1]; 40 mg/kg i.p., B: of 7 mice) | increase of lifespan (ILS) ([1]; 80 mg/kg i.p.) | Number of mice surviving 30 days or longer ([1]; 80 mg/kg i.p., B: of 7 mice) | increase of lifespan (ILS) ([1]; 160 mg/kg i.p.) | chemotherapy index (CI) [1] | ILSmax (dose of achieving the maximum ILS) [1] | increase of lifespan (ILS) ([6]; 10 mg/kg i.p.) | increase of lifespan (ILS) ([6]; 20 mg/kg i.p.) | increase of lifespan (ILS) ([6]; 40 mg/kg i.p.) | increase of lifespan (ILS) ([6]; 80 mg/kg i.p.) | increase of lifespan (ILS) ([6]; 160 mg/kg i.p.) | ILS30 (dose of achieving 30% ILS) [6] | ILS max (dose of achieving the maximum ILS) [6] | further results |
| --- | --- | --- | --- | --- | --- | --- | --- | --- | --- | --- | --- | --- | --- | --- | --- | --- | --- | --- | --- | --- | --- |
| N.N.O=C([O-])C1(C(=O)[O-])CCC1.[Pt+2] [Test Compound E, Carboplatin] | ineffective | Ineffective | 16 mg/mL | – | – | – | – | – | – | – | – | – | – | – | – | – | – | – | – | – | Hemotoxicity NBMC (ratio to non-treated control) [3, 8]: 78 percentage; Hemotoxicity NBMC (ratio to non-treated control) ([3]; 60.0 mg/kg single i.v.): 75 percentage; Hemotoxicity NBMC (ratio to non-treated control) ([3]; 120.0 mg/kg single i.v.): 28 percentage; Hemotoxicity MEG (ratio to non-treated control) [4, 8]: 60 percentage; Hemotoxicity MEG (ratio to non-treated control) ([4]; 60.0 mg/kg single i.v.): 45 percentage; Hemotoxicity MEG (ratio to non-treated control) ([4]; 120.0 mg/kg single i.v.): 8 percentage; Hemotoxicity PLT (ratio to non-treated control) [5, 8]: 89 percentage; Hemotoxicity PLT (ratio to non-treated control) ([5]; 60.0 mg/kg single i.v.): 65 percentage; Hemotoxicity PLT (ratio to non-treated control) ([5]; 120.0 mg/kg single i.v.): 35 percentage |
| (1R,2R-Diaminocyclohexane)[1-hydroxy-1-cyclopentanecarboxylato(2-)-O^1,O^2 ]platinum (II) [Test Compound A] | 14.5 mg/kg | 164.9 mg/kg | > 500 mg/mL | 1% | 5% | > 50% | > 56% | 2 | > 110% | 4 | 1% | 5.5 | 80 mg/kg | 16% | 19% | 37% | > 81% | > 168% | 31 mg/kg | 160 mg/kg | Number of mice surviving 30 days or longer ([1]; 20 mg/kg i.p.): 2; increase of lifespan (ILS) ([6]; 5 mg/kg i.p.): 10%; Number of mice survived 30 days or longer ([6]; 40 mg/kg i.p.): 1; Number of mice survived 30 days or longer ([6]; 80 mg/kg i.p.): 3; Number of mice survived 30 days or longer ([6]; 160 mg/kg i.p.): 1; increase of lifespan (ILS) ([6]; 320 mg/kg i.p.): 14%; chemotherapy index (CI) [6]: 5.2; chemotherapy index (CI) [2]: 2.7; Hemotoxicity NBMC (ratio to non-treated control) ([3]; 31.0 mg/kg single i.v.): 108 percentage; Hemotoxicity NBMC (ratio to non-treated control) ([3]; 62.0 mg/kg (1/5 LD90) single i.v.): 87 percentage; Creatinine ([7]; 160 mg/kg): 0.26; Urea nitrogen ([7]; 160 mg/kg): 22.6 mg/dL; Creatinine ([7]; 320 mg/kg): 0.27; Urea nitrogen ([7]; 320 mg/kg): 23.3 mg/dL; lethal dose ([7]; single i.v., male CDF1 mice, if the observation period was further extended): 320 mg/kg |
| (1R,2R-Diaminocyclohexane)[2-hydroxy-2-methylbutyrato(2-)-O^1, O^2 -]platinum (II) [Test Compound C] | – | 106.2 mg/kg | – | – | – | – | – | – | – | – | – | – | – | – | – | – | – | – | – | – | chemotherapy index (CI) [2]: 4.3 |
| (1R,2R-Diaminocyclohexane)[1-hydroxy-1-cyclopropanecarboxylato(2-)-O^1,O^2 ]platinum (II) [Test Compound B] | 24 mg/kg | – | 30 mg/mL | 6% | 14% | 4% | > 93% | 3 | > 179% | 6 | -16% | 3.3 | 80 mg/kg | 10% | 21% | 22% | 66% | > 83% | 45 mg/kg | 160 mg/kg | Number of mice survived 30 days or longer ([6]; 160 mg/kg i.p.): 2; chemotherapy index (CI) [6]: 3.6 |
| N.N.[Cl][Pt][Cl] [Test Compound D, Cisplatin, reference compound] | ineffective | 18.3 mg/kg | – | – | – | – | – | – | – | – | – | – | – | – | – | – | – | – | 2.7 mg/kg | 10 mg/kg | – |
